Earlier results in paper PMC7898808 (Diabetes, Obesity & Metabolism, 2020).
Where two headings read alike, the source gives them in different places.

What was measured:
fructose-stimulated DNL = details: single dose of 20 mg, healthy population
steady-state DNL = details: repeat dosing in NASH subjects
NAFLD patients = details: 20 mg for 12 weeks

SMILES | reduction of fructose-stimulated DNL (fructose-stimulated DNL) | decrease of steady-state DNL (steady-state DNL) | patients achieving relative MRI-PDFF reduction of ≥30% (NAFLD patients) | DNL inhibition (hepatic DNL; 50 mg daily dosing for 10 days) | DNL inhibition (hepatic DNL; 100 mg daily dosing for 10 days) | DNL inhibition (hepatic DNL; 150 mg daily dosing for 10 days)
COc1ccccc1[C@H](Cn1c(=O)n(C(C)(C)C(=O)O)c(=O)c2c(C)c(-c3ncco3)sc21)OC1CCOCC1 [GS-0976] | 70% | 22% | 43% |  |  | 
Cc1nnc(-c2cc(C(=O)N3CCC(c4ccc(C#N)cc4)CC3)c(C)cc2C2CCC2)[nH]1 [TVB-2640] |  |  |  | 23% | 65% | 77%
